Assay results from patent US4346097A, “Method for treating convulsions with pyrazole-4-carboxamide derivatives” (Warner-Lambert Company, priority 1980, dated 1982).

Experiments:
[1] = Subcutaneous Pentylenetetrazole Seizure Threshold Test, scMet; type: in vivo; conditions: for PI scMet: Protective Index, ratio of TD50 vs ED50 scMet; for ED50: sc
Source text: The compounds of structural formula I are new chemical substances of value as pharmacological agents for the treatment of convulsions in warm-bloodedanimals. The term convulsions is intended to mean the characteristic body movements which are associated with the group of chronic central nervous system disorders termed, epilepsies. The anticonvulsant activity of representative compounds of formula I was established by the following standard test procedures: […]
3. Subcutaneous Pentylenetetrazole Seizure Threshold Test, scMet.
(§1) These procedures are described in E. A. Swinyard, et al., Epilepsia, 19, 409 (1978), which is incorporated herein by reference. The TD50 is defined as the median minimal neurotoxic dose.

Rotorod Test, TD50 = conditions: in vivo
Source text: (§2) The term convulsions is intended to mean the characteristic body movements which are associated with the group of chronic central nervous system disorders termed, epilepsies.
as §1

[2] = Maximal Electroshock Seizure Test, MES; type: in vivo; conditions: for PI MES: Protective Index, ratio of TD50 vs ED50 MES
Source text: as §2
2. Maximal Electroshock Seizure Test, MES.
as §1

SMILES | PI scMet [1] | ED50 [1] | TD50 (Rotorod Test, TD50) | ED50 [2] | PI MES [2]
Cc1ccccc1NC(=O)c1c(C)nn(C)c1N [5-Amino-1,3-dimethyl-N-(2-methylphenyl)-1H-pyrazole-4-carboxamide] | 1.94 | 53.7 mg/kg | 104 mg/kg | 25.7 mg/kg | 4.05
Cc1nn(C)c(N)c1C(=O)Nc1cccc(Cl)c1 [5-Amino-N-(3-chlorophenyl)-1,3-dimethyl-1H-pyrazole-4-carboxamide] | 2.35 | 99.6 mg/kg | 234 mg/kg | 47.3 mg/kg | 4.95
NC(=O)N1c2ccccc2C=Cc2ccccc21 [CARBAMAZEPINE] |  |  |  | 8.81 mg/kg | 
CCC1(c2ccccc2)NC(=O)N(C)C1=O (stereo not shown) [MEPHENYTOIN] | 5.05 | 30.4 mg/kg | 154 mg/kg | 60.5 mg/kg | 2.54
